One compound from publication PMC6449406, “Classification of the human phox homology (PX) domains based on their phosphoinositide binding specificities” (Nature Communications, 2019) can be followed below.

Experiment in all cases: liposome pelleting
Common to all, as to type: binding
Holding throughout (details): 10 mol% lipid in POPC/POPE liposomes, 20 µM protein, pH 7.2, 125 mM NaCl

One assay has as its target T1, p40phox (Homo sapiens, UniProt Q15080).
T1 construct: gene NCF4; PX domain only, N-terminal GST removed by thrombin, E. coli
T1 sequence (Q15080 19-140 limits assumed): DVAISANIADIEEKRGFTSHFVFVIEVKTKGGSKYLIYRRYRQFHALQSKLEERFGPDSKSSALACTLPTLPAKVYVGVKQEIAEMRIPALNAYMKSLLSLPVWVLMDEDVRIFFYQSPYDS

A further assay has as its target T2, SNX19 (Homo sapiens, UniProt Q92543).
T2 construct: a GST-tagged form was also made), E. coli
T2 sequence (Q92543 533-663 limits assumed): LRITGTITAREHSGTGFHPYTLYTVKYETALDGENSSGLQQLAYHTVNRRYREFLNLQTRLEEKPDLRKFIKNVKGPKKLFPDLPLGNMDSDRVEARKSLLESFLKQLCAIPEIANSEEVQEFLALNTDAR

A further assay addresses T3, SNX3 (Homo sapiens, UniProt O60493).
T3 construct: PX domain only, N-terminal GST removed by thrombin, E. coli

The target in the next assay is T4, PXK (Homo sapiens, UniProt Q7Z7A4).
T4 construct: PX domain only, N-terminal GST removed by thrombin, E. coli
T4 sequence (Q7Z7A4 14-126 limits assumed): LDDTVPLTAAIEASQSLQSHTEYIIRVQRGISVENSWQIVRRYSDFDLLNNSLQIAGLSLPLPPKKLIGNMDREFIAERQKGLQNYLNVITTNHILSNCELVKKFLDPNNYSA

The next assay has as its target T5, SNX7 (Homo sapiens, UniProt Q9UNH6).
T5 construct: PX domain only, N-terminal GST removed by thrombin, E. coli
T5 sequence (Q9UNH6 30-151 limits assumed): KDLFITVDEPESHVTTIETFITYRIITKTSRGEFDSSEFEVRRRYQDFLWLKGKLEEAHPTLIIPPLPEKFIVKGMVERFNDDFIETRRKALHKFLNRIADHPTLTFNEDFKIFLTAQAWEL

A further assay deals with T6, SNX16 (Homo sapiens, UniProt P57768).
T6 construct: PX domain only, N-terminal GST removed by thrombin, E. coli
T6 sequence (P57768 105-218 limits assumed): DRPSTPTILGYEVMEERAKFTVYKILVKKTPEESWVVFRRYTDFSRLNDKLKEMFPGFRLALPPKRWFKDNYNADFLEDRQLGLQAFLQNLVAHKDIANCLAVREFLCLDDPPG

A further assay deals with T7, SNX17 (Homo sapiens, UniProt Q15036).
T7 construct: PX domain only, N-terminal GST removed by thrombin, E. coli
T7 sequence (Q15036 1-109 limits assumed): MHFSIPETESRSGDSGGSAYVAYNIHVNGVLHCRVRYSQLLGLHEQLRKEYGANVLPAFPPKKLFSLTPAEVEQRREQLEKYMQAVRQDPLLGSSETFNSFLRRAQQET

In another assay the target is T8, SNX27 (Homo sapiens, UniProt Q96L92).
T8 construct: PX domain only, N-terminal GST removed by thrombin, E. coli

T3 sequence (O60493 27-151 limits assumed): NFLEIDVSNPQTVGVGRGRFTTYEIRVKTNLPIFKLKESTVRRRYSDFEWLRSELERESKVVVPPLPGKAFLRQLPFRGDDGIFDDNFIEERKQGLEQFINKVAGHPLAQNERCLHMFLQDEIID

Take `CCCCCCCC(=O)OC[C@H](COP(=O)(O)O[C@@H]1[C@H](O)[C@H](OP(=O)(O)O)[C@@H](O)[C@H](O)[C@H]1O)OC(=O)CCCCCCC` [PtdIns3P, 1,2-dioctanoyl-sn-glycero-3-(phosphoinositol-3-phosphate)]: the liposome pelleting result on p40phox is “(SNX3, SNX7, SNX19, SNX17, SNX27, p40phox, PXK, and SNX16)”; at SNX19 it was “exclusive interaction with liposomes containing PtdIns3P (SNX3, SNX7, SNX19”; on SNX3 it was “exclusive interaction with liposomes containing PtdIns3P (SNX3”; on PXK, “(SNX3, SNX7, SNX19, SNX17, SNX27, p40phox, PXK, and SNX16)”; at SNX7 it was “exclusive interaction with liposomes containing PtdIns3P (SNX3, SNX7”; on SNX16, “(SNX3, SNX7, SNX19, SNX17, SNX27, p40phox, PXK, and SNX16)”. Besides, the liposome pelleting result at SNX17 is reported as “exclusive interaction with liposomes containing PtdIns3P (SNX3, SNX7, SNX19, SNX17”; on SNX27, “exclusive interaction with liposomes containing PtdIns3P (SNX3, SNX7, SNX19, SNX17, SNX27”.
